{
  "source": "patent US20100305098A1",
  "about": "“METHODS OF USE” (priority 2007, published 2010)",
  "key": {"OPRK1": {"target": "T1, OPRK1 (Homo sapiens, UniProt P41145)", "T1 construct": "Millipore", "assay": "FLIPR functional screen", "type": "cell-based", "details": "antagonist mode"}, "CCR3": {"target": "T2, CCR3 (Homo sapiens, UniProt P51677)", "T2 construct": "Millipore", "T2 sequence (P51677 whole entry, species assumed)": "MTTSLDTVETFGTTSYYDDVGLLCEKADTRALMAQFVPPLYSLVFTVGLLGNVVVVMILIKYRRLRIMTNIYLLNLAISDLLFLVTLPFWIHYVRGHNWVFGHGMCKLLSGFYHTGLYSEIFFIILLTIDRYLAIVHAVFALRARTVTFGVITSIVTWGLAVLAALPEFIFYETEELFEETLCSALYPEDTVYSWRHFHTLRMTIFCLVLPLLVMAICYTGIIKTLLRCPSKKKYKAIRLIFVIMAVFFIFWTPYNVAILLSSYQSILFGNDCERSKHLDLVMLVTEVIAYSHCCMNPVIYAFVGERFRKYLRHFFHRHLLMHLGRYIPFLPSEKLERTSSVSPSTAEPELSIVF", "assay": "FLIPR functional screen", "type": "cell-based", "details": "antagonist mode"}, "AT1": {"target": "T3, AT1 (Homo sapiens, UniProt P30556)", "T3 construct": "purchased Millipore (outsourced screen)", "T3 sequence (P30556 whole entry)": "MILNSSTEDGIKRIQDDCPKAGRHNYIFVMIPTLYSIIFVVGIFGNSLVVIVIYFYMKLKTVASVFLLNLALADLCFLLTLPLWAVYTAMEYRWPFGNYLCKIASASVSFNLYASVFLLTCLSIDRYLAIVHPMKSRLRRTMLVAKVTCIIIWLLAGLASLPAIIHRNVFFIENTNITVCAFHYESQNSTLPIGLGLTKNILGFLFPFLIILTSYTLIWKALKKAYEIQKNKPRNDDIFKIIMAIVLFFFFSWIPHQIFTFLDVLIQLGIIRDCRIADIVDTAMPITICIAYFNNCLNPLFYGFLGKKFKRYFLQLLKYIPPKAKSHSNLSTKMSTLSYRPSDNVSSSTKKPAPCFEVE", "assay": "FLIPR functional screen", "type": "cell-based", "details": "antagonist mode"}, "FP": {"target": "T4, FP (Homo sapiens, UniProt P43088)", "T4 construct": "Millipore", "assay": "FLIPR functional screen", "type": "cell-based", "details": "antagonist mode"}, "SST3": {"target": "T5, SST3 (Homo sapiens, UniProt P32745)", "T5 construct": "Millipore", "assay": "FLIPR functional screen", "type": "cell-based", "details": "antagonist mode"}, "NOP": {"target": "T6, NOP (Homo sapiens, UniProt P41146)", "T6 construct": "Millipore", "assay": "FLIPR functional screen", "type": "cell-based", "details": "antagonist mode"}, "Prostanoid EP2": {"target": "T7, Prostanoid EP2 (Homo sapiens, UniProt P43116)", "T7 construct": "purchased MDS Pharma (outsourced assay)", "T7 sequence (P43116 whole entry)": "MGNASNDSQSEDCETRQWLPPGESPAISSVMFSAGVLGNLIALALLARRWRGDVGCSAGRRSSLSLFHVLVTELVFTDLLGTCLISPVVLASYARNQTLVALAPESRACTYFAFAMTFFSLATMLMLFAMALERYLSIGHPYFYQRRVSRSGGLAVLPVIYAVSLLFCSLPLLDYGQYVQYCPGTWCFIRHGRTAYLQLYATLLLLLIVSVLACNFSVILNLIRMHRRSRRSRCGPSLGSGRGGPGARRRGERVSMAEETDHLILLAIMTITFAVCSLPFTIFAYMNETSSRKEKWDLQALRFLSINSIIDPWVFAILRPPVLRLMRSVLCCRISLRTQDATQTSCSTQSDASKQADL", "assay": "Competitive radioligand binding (MDS Pharma)"}, "CGRP1": {"target": "T8, CGRP1 (Homo sapiens, UniProt O60894+Q16602)", "T8 construct": "Millipore", "assay": "FLIPR functional screen", "type": "cell-based", "details": "antagonist mode"}, "CCR4": {"target": "T9, CCR4 (Homo sapiens, UniProt P51679)", "T9 construct": "Millipore", "assay": "FLIPR functional screen", "type": "cell-based", "details": "antagonist mode"}, "EP2": {"target": "T10, EP2 (Homo sapiens, UniProt P43116)", "T10 construct": "Millipore", "T10 sequence (P43116 whole entry)": "as above", "assay": "FLIPR functional screen", "type": "cell-based", "details": "antagonist mode"}, "CXCR4": {"target": "T11, CXCR4 (Homo sapiens, UniProt P61073)", "T11 construct": "Millipore", "assay": "FLIPR functional screen", "type": "cell-based", "details": "antagonist mode"}, "GLP1": {"target": "T12, GLP1 (Homo sapiens, UniProt P43220)", "T12 construct": "Millipore", "T12 sequence (P43220 24-463)": "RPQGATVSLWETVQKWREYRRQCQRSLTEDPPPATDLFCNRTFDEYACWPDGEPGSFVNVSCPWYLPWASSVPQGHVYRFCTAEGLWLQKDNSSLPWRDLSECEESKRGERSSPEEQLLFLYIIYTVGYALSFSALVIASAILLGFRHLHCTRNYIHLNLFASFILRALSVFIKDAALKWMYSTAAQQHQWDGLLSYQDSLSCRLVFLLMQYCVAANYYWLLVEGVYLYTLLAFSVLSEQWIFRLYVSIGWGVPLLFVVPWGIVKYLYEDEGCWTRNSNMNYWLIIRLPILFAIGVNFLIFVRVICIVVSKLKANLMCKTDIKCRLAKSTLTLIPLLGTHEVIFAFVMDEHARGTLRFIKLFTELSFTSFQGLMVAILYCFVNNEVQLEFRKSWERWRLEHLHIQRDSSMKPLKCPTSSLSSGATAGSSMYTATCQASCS", "assay": "FLIPR functional screen", "type": "cell-based", "details": "antagonist mode"}, "GPR103": {"target": "T13, GPR103 (Homo sapiens, UniProt Q96P65)", "T13 construct": "Millipore", "T13 sequence (Q96P65 whole entry, species assumed)": "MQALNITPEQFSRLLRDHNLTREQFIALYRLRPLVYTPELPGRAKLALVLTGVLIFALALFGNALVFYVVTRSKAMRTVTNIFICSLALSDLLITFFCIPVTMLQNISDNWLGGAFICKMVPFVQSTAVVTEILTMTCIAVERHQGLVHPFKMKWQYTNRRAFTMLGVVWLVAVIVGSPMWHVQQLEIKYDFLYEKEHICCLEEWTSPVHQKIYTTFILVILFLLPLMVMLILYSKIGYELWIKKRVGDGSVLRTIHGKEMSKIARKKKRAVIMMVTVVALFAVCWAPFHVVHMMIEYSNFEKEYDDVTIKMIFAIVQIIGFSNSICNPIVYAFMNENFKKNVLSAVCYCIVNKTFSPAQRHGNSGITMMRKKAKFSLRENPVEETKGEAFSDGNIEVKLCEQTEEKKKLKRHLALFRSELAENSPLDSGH", "assay": "FLIPR functional screen", "type": "cell-based", "details": "antagonist mode"}, "CAS": {"target": "T14, CAS (Homo sapiens, UniProt P41180)", "T14 construct": "Millipore", "T14 sequence (P41180 20-1078)": "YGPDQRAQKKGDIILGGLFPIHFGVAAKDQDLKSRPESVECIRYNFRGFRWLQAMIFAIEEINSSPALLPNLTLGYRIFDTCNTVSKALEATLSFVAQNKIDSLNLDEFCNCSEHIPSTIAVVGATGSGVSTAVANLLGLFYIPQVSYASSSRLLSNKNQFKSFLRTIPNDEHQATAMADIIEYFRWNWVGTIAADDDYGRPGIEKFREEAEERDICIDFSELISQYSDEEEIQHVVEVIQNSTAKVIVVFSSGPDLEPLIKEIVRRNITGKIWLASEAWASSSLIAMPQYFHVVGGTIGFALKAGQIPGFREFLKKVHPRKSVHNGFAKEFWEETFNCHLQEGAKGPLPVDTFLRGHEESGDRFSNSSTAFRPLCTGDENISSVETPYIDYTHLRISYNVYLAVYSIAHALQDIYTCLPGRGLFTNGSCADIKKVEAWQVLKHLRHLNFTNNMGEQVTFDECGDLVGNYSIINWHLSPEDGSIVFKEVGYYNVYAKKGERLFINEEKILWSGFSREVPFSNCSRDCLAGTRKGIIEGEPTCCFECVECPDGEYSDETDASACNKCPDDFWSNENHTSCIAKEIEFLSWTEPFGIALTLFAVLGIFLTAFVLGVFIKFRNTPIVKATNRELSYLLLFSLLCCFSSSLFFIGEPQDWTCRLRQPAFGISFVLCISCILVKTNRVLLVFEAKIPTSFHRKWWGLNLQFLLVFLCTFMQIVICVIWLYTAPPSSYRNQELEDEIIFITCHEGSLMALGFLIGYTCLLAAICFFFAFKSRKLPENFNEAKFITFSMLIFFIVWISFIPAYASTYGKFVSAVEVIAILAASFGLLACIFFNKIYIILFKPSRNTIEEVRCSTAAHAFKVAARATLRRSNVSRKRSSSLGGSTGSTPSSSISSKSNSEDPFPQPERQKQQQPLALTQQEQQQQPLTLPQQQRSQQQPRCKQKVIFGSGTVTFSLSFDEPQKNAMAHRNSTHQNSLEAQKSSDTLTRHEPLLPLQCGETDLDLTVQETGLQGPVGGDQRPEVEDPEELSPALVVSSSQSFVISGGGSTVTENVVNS", "assay": "FLIPR functional screen", "type": "cell-based", "details": "antagonist mode"}, "CCR10": {"target": "T15, CCR10 (Homo sapiens, UniProt P46092)", "T15 construct": "Millipore", "T15 sequence (P46092 whole entry)": "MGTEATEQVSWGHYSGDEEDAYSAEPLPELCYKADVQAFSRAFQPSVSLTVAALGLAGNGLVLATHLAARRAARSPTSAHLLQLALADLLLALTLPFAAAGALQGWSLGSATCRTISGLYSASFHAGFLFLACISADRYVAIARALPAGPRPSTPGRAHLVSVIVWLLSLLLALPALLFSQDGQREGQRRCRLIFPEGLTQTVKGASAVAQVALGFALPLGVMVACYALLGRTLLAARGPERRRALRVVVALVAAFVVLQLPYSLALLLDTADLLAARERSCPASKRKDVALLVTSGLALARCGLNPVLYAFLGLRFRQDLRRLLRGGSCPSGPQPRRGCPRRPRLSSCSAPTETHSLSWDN", "assay": "FLIPR functional screen", "type": "cell-based", "details": "antagonist mode"}, "CIA mouse": {"tested_on": "CIA mouse", "assay": "Suppression of arthritis development in CIA", "type": "in vivo", "description": "Suppression of arthritis development in CIA. DBA1/J mice were immunized with bCII/CFA at day 0 then boosted at day 21 with bCII/IFA. Arthritis development was monitored over the course of study. The arthritis score is as follows: 0=normal paw, score of 1=1-2 digit inflamed paws; score of 2=3 digits or 1-2 digit+wrist or ankle inflamed, score of 3=hand+more than 2 digits inflamed; and score of 4=multiple digits (3-4)+important wrist or ankle inflammation.\n(A) Partial therapeutic evaluation of compounds. Active compound was given by oral dosing once daily at the dose indicated from day 20 after induction of antibodies to collagen II but before disease development. (B) Full therapeutic evaluation of compound. Active compound was given after disease was developed (from day 7 after the second immunization). (C) X-ray analysis of mouse paws from full therapeutic CIA study. X-ray score is the index of measurement of combination of osteopenia, bone erosion and new bone formation. (D) Representative X-ray radiographs.\nCollagen induced arthritis model. Male DBA/1 mice were immunized intradermally at the base of the tail with 0.1 ml emulsion, containing 150 μg bovine type II collagen emulsified in Freund's complete adjuvant. Three weeks after 1st immunization, all mice were boosted with bovine type II collagen emulsified in Freund's incomplete adjuvant. The severity of arthritic symptoms in the paws of each mouse was graded according to Wood et al. in accordance with known techniques.\nSeveral studies were performed in the mouse CIA model to evaluate anti-arthritic effects of ER-819924-01. Initially ER-819924-01 was studied in a partial therapeutic dosing regimen in which compounds were orally administered daily from day 20 (i.e. after induction of pathogenic anti-type II collagen antibodies, but before arthritis development). Arthritis score (measured as an inflammatory response index of inflamed paw) and body weight were monitored over two weeks. […] We also studied ER-819924-01 in a full therapeutic dosing regimen in which compounds were dosed after the induction of disease."}, "CB1": {"target": "T16, CB1 (Homo sapiens, UniProt P21554)", "T16 construct": "Millipore", "assay": "FLIPR functional screen", "type": "cell-based", "details": "antagonist mode"}, "CRTH2": {"target": "T17, CRTH2 (Homo sapiens, UniProt Q9Y5Y4)", "T17 construct": "Millipore", "assay": "FLIPR functional screen", "type": "cell-based", "details": "antagonist mode"}, "H1": {"target": "T18, H1 (Homo sapiens, UniProt P35367)", "T18 construct": "Millipore", "T18 sequence (P35367 whole entry)": "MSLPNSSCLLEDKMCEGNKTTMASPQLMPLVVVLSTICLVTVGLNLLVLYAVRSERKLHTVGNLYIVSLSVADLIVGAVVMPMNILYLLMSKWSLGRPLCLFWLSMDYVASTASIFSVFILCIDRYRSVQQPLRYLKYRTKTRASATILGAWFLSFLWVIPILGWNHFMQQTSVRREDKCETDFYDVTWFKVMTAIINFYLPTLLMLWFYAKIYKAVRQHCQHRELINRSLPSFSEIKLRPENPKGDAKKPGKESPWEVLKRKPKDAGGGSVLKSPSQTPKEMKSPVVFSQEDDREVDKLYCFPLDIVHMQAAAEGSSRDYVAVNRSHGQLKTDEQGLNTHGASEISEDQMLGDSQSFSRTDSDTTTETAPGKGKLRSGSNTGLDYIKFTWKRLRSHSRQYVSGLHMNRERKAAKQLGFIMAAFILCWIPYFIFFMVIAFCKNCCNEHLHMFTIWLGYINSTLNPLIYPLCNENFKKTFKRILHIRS", "assay": "FLIPR functional screen", "type": "cell-based", "details": "antagonist mode"}, "SECRETIN": {"target": "T19, SECRETIN (Homo sapiens, UniProt P47872)", "T19 construct": "Millipore", "assay": "FLIPR functional screen", "type": "cell-based", "details": "antagonist mode"}, "CCR8": {"target": "T20, CCR8 (Homo sapiens, UniProt P51685)", "T20 construct": "Millipore", "assay": "FLIPR functional screen", "type": "cell-based", "details": "antagonist mode"}, "DP": {"target": "T21, DP (Homo sapiens, UniProt Q13258)", "T21 construct": "Millipore", "assay": "FLIPR functional screen", "type": "cell-based", "details": "antagonist mode"}, "P2Y1": {"target": "T22, P2Y1 (Homo sapiens, UniProt P47900)", "T22 construct": "Millipore", "T22 sequence (P47900 whole entry, species assumed)": "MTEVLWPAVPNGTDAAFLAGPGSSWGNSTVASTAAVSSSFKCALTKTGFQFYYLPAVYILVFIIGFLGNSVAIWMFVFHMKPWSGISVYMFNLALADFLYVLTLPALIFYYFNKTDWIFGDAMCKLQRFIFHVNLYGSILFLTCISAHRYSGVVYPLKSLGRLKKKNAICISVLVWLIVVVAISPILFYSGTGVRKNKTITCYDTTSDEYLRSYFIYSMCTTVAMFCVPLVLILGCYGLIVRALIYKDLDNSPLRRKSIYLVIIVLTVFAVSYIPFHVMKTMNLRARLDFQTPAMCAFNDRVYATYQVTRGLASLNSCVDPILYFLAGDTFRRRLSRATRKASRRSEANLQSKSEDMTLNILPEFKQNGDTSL", "assay": "FLIPR functional screen", "type": "cell-based", "details": "antagonist mode"}, "PTH1": {"target": "T23, PTH1 (Homo sapiens, UniProt Q03431)", "T23 construct": "Millipore", "assay": "FLIPR functional screen", "type": "cell-based", "details": "antagonist mode"}, "PK1": {"target": "T24, PK1 (Homo sapiens, UniProt Q8TCW9)", "T24 construct": "Millipore", "assay": "FLIPR functional screen", "type": "cell-based", "details": "PK-1, antagonist mode"}, "ADRB3": {"target": "T25, ADRB3 (Homo sapiens, UniProt P13945)", "T25 construct": "purchased Millipore (outsourced screen)", "assay": "FLIPR functional screen", "type": "cell-based", "details": "antagonist mode"}, "M4": {"target": "T26, M4 (Homo sapiens, UniProt P08173)", "T26 construct": "Millipore", "T26 sequence (P08173 whole entry)": "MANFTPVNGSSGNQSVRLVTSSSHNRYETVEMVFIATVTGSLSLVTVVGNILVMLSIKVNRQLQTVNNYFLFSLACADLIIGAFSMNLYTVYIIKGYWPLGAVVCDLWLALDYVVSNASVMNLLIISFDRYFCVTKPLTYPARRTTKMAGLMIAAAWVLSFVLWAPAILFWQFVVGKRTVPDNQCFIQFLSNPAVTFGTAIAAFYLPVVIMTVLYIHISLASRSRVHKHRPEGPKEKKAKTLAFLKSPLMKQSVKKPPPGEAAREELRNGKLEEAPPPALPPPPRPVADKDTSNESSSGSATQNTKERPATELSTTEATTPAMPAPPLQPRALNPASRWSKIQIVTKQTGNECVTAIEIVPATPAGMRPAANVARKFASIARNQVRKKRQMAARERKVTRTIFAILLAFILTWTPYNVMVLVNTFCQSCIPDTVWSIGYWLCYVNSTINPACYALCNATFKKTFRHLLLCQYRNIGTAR", "assay": "FLIPR functional screen", "type": "cell-based", "details": "antagonist mode"}, "CYSLT2": {"target": "T27, CYSLT2 (Homo sapiens, UniProt Q9NS75)", "T27 construct": "Millipore", "assay": "FLIPR functional screen", "type": "cell-based", "details": "antagonist mode"}},
  "data": [
    {"smiles": "CCN1C(=O)N2Cc3cc(OC)cc(OC)c3[C@@H](C)C=C2C12CCN(Cc1cccn1C)CC2", "note": "[ER-819924-01]", "values": [
      {"measurement": "inhibition at 1 µM", "setting": "OPRK1", "value": 6.2, "unit": "%"},
      {"measurement": "inhibition at 1 µM", "setting": "CCR3", "value": -5.6, "unit": "%"},
      {"measurement": "inhibition at 1 µM", "setting": "AT1", "value": -1.5, "unit": "%"},
      {"measurement": "inhibition at 1 µM", "setting": "FP", "value": 14, "unit": "%"},
      {"measurement": "inhibition at 1 µM", "setting": "SST3", "value": -19.7, "unit": "%"},
      {"measurement": "inhibition at 1 µM", "setting": "NOP", "value": 1, "unit": "%"},
      {"measurement": "% INHIBITION", "setting": "Prostanoid EP2; CONC. 0.1 μm", "value": "−3", "unit": "%"},
      {"measurement": "% INHIBITION", "setting": "Prostanoid EP2; CONC. 1 μm", "value": 1, "unit": "%"},
      {"measurement": "inhibition at 1 µM", "setting": "CGRP1", "value": -5.6, "unit": "%"},
      {"measurement": "inhibition at 1 µM", "setting": "CCR4", "value": -13.4, "unit": "%"},
      {"measurement": "inhibition at 1 µM", "setting": "EP2", "value": 4.2, "unit": "%"},
      {"measurement": "inhibition at 1 µM", "setting": "CXCR4", "value": -11.8, "unit": "%"},
      {"measurement": "inhibition at 1 µM", "setting": "GLP1", "value": 10.6, "unit": "%"},
      {"measurement": "inhibition at 1 µM", "setting": "GPR103", "value": 0.4, "unit": "%"},
      {"measurement": "inhibition at 1 µM", "setting": "CAS", "value": 7.2, "unit": "%"},
      {"measurement": "inhibition at 1 µM", "setting": "CCR10", "value": 2.2, "unit": "%"},
      {"measurement": "X-ray score", "setting": "CIA mouse; 30 mg/kg, separate study", "value": "significantly improved X-ray score"},
      {"measurement": "ED50", "setting": "CIA mouse; Mus musculus, 480 h, partial therapeutic dosing, oral daily from day 20", "value": "~10", "unit": "mg/kg"},
      {"measurement": "arthritis development under full therapeutic dosing", "setting": "CIA mouse; dosed after induction of disease, 10 mg/kg", "value": "effectively prevented further arthritis development"},
      {"measurement": "inhibition at 1 µM", "setting": "CB1", "value": 10.5, "unit": "%"},
      {"measurement": "inhibition at 1 µM", "setting": "CRTH2", "value": 4.1, "unit": "%"},
      {"measurement": "inhibition at 1 µM", "setting": "H1", "value": -39.3, "unit": "%"},
      {"measurement": "inhibition at 1 µM", "setting": "SECRETIN", "value": 11.3, "unit": "%"},
      {"measurement": "inhibition at 1 µM", "setting": "CCR8", "value": 2.9, "unit": "%"},
      {"measurement": "inhibition at 1 µM", "setting": "DP", "value": -5.8, "unit": "%"},
      {"measurement": "inhibition at 1 µM", "setting": "P2Y1", "value": -37.5, "unit": "%"},
      {"measurement": "inhibition at 1 µM", "setting": "PTH1", "value": 3.9, "unit": "%"},
      {"measurement": "inhibition at 1 µM", "setting": "PK1", "value": -4.3, "unit": "%"},
      {"measurement": "inhibition at 1 µM", "setting": "ADRB3", "value": 11.4, "unit": "%"},
      {"measurement": "inhibition at 1 µM", "setting": "M4", "value": 10.5, "unit": "%"},
      {"measurement": "inhibition at 1 µM", "setting": "CYSLT2", "value": 4.5, "unit": "%"}
    ]}
  ]
}
